Results on one compound are retold here after patent US6339088B1, “Composition for treatment of external secretion disorders except hypol acrimation” (R-Tech Ueno. Ltd., priority 1999, dated 2002).

The test system of one test is Male Sprague-Dawley rats. As to the kind of experiment: Effect on saliva secretion in rats (filter-paper infiltration distance). Type of test: in vivo, rat. Particulars: 50 μL of 0.3% solution intraorally three times a day on Day 1 and 2, measured Day 3 one hour after administration. How it is done:
[3-(4-Bromo-2-fluorobenzyl)-7-chloro-2,4-dioxo-1,2,3,4-tetrahydroquinazolin-1-yl]acetate, a compound represented by the general formula (II) having aldose reductase-inhibiting effect as an active ingredient was used for preparation of a 0.3% solution.
Male Sprague-Dawley rats (aged 7 weeks) were used. The rats were intraorally administered with 50 μL of the 0.3% solution or distilled water three times a day (10:00, 14:00, 18:00) on Day 1 and Day 2. On Day 3, the time upon lapse of one hour after the administration at 10:00 and 14:00, a strip of filter-paper (Schirmer Tear Production Measuring Strips: SHOWA YAKUHIN KAKO CO., LTD.) with the length of 37 mm and width of 5 mm was inserted between the lower teeth gums and the lower jaw of the rat to absorb the saliva into the filter-paper. The infiltration distance of the saliva into the filter-paper was measured every 1 minute for 5 minutes.

A further test relates to diabetic patient. As to the kind of experiment: Saliva secretion in a diabetic patient after instillation of 0.3% eye drops. Type of test: in vivo, human. The conditions noted are these: 0.3% eye drops instilled four times a day, sixth day after start of administration. An excerpt: [3-(4-Bromo-2-fluorobenzyl)-7-chloro-2,4-dioxo-1,2,3,4-tetrahydroquinazolin-1-yl]acetate, a compound represented by the general formula (II) having aldose reductase-inhibiting effect as an active ingredient was used for preparation of a 0.3% eye drops.
The 0.3% eye drops was instilled to a diabetic patient four times a day.

As to `O=C(O)Cn1c(=O)n(Cc2ccc(Br)cc2F)c(=O)c2ccc(Cl)cc21` [formula (II), [3-(4-bromo-2-fluorobenzyl)-7-chloro-2,4-dioxo-1,2,3,4-tetrahydroquinazolin-1-yl]acetate], the “The infiltration distance of the saliva into filter-paper, mm, mean ± S.E., after 1 min.” value in the test on Male Sprague-Dawley rats (after 1 min.) was found to be 8.1 ± 1.5 mm. Moreover, the “The infiltration distance of the saliva into filter-paper, mm, mean ± S.E., after 2 min.” value in the test on Male Sprague-Dawley rats (after 2 min.) was determined as 10.6 ± 1.8 mm. For the same compound, in the test on Male Sprague-Dawley rats (after 3 min., * P<0.05 vs control), the “The infiltration distance of the saliva into filter-paper, mm, mean ± S.E., after 3 min.” value was 12.6 ± 2.0* mm. Moreover, the “The infiltration distance of the saliva into filter-paper, mm, mean ± S.E., after 4 min.” value in the test on Male Sprague-Dawley rats (after 4 min., * P<0.05 vs control) was 13.6 ± 2.1* mm. The “The infiltration distance of the saliva into filter-paper, mm, mean ± S.E., after 5 min.” value in the test with Male Sprague-Dawley rats (after 5 min.) is given as 14.5 ± 2.3 mm. The saliva secretion result in the test on diabetic patient is on record as “obvious sthenia of saliva secretion”.
